This is an account of results in US20040044000A1, “Isoquinoline derivatives as matrix metalloproteinase inhibitors” (priority 2002, published 2004).

Some results are limits rather than exact numbers.

Common to all, as to format: biochemical
For test [1], the target named is T1, MMP-13 catalytic domain (MMP-13CD) (Homo sapiens, UniProt P45452).
T1 construct: use the catalytic domain of the MMP-13 enzyme, namely matrix metalloproteinase-13 catalytic domain (“MMP-13CD”), rather than the corresponding full-length enzyme
Put plainly: Inhibition of MMP-13 catalytic domain (thiopeptolide substrate hydrolysis). Conditions: Biological Table 1; read-out: MMP-13CD IC50. The essentials:
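Catalytic domain of MMP-13 (MMP-13CD) with 100 μM Ac-Pro-Leu-Gly-thioester-Leu-Leu-Gly-OEt in 50 mM HEPES pH 7.0, 10 mM CaCl2, 1 mM DTNB at 22° C. Hydrolysis followed by absorbance at 405 nm; IC50 (μM) from multiple compound concentrations.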

Test [2] has as its target MMP-3 catalytic domain (MMP-3CD) (Homo sapiens, UniProt P08254). The test can be described thus: Inhibition of MMP-3 catalytic domain (thiopeptolide substrate hydrolysis, MES pH 6.0). From the text: (§1) The assays measure the amount by which a test compound reduces the hydrolysis of a thiopeptolide substrate catalyzed by a matrix metalloproteinase enzyme. Such assays are described in detail by Ye et al., in Biochemistry, 1992;31(45):11231-11235, which is incorporated herein by reference. One such assay is described below in Biological Method 1.
(§2) Thiopeptolide substrates show virtually no decomposition or hydrolysis at or below neutral pH in the absence of a matrix metalloproteinase enzyme. A typical thiopeptolide substrate commonly utilized for assays is Ac-Pro-Leu-Gly-thioester-Leu-Leu-Gly-OEt. A 100 μL assay mixture will contain 50 mM of N-2-hydroxyethylpiperazine-N′-2-ethanesulfonic acid buffer (“HEPES,” pH 7.0), 10 mM CaCl2, 100 μM thiopeptolide substrate, and 1 mM 5,5′-dithio-bis-(2-nitro-benzoic acid) (DTNB). The thiopeptolide substrate concentration may be varied, for example from 10 to 800 μM to obtain Km and Kcat values. The change in absorbance at 405 nm is monitored on a Thermo Max microplate reader (molecular Devices, Menlo Park, Calif.) at room temperature (22° C.). The calculation of the amount of hydrolysis of the thiopeptolide substrate is based on E412=13600 M^−1 cm^−1 for the DTNB-derived product 3-carboxy-4-nitrothiophenoxide. Assays are carried out with and without matrix metalloproteinase inhibitor compounds, and the amount of hydrolysis is compared for a determination of inhibitory activity of the test compounds.
(§3) Test compounds were evaluated at various concentrations in order to determine their respective IC50 values, the micromolar concentration of compound required to cause a 50% inhibition of catalytic activity of the respective enzyme.
It should be appreciated that the assay buffer used with MMP-3CD was 50 mM N-morpholinoethane sulfonate (“MES”) at pH 6.0 rather than the HEPES buffer at pH 7.0 described above.

In test [3] the target is T2, MMP-12 catalytic domain (MMP-12CD) (Homo sapiens, UniProt P39900).
T2 construct: MMP-3 catalytic domain, MMP-12 catalytic domain, MMP-14 catalytic domain, and MMP-17 catalytic domain
Put plainly: Inhibition of MMP-12 catalytic domain (thiopeptolide substrate hydrolysis).
Text: as §1, §2, §3
(§4) The test described above for the inhibition of MMP-13 may also be adapted and used to determine the ability of the compounds of Formula I to inhibit the matrix metalloproteases MMP-1, MMP-2, MMP-3, MMP-7, MMP-9, MMP-12 and MMP-14.

Test [4] concerns the target MMP-14 catalytic domain (MMP-14CD) (Homo sapiens, UniProt P50281). Put plainly: Inhibition of MMP-14 catalytic domain (thiopeptolide substrate hydrolysis).
Text: as §1, §2, §3, §4

In test [5] the target is T3, MMP-17 catalytic domain (MMP-17CD) (Homo sapiens, UniProt Q9ULZ9).
T3 construct: MMP-3 catalytic domain, MMP-12 catalytic domain, MMP-14 catalytic domain, and MMP-17 catalytic domain
T3 sequence (Q9ULZ9 126-295 limits assumed): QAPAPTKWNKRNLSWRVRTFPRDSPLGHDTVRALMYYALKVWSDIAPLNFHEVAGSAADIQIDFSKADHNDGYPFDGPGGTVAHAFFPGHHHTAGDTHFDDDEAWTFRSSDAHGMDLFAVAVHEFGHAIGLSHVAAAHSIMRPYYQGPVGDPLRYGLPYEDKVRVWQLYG
The test can be described thus: Inhibition of MMP-17 catalytic domain (thiopeptolide substrate hydrolysis).
Text: as §1, §2, §3

T2 sequence (P39900 106-263 limits assumed, species assumed): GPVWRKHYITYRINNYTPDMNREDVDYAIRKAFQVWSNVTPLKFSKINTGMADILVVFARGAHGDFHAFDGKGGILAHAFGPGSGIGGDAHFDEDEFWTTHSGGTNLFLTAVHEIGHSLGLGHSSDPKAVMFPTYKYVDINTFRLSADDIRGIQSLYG
Sequence of MMP-3 catalytic domain (MMP-3CD) (P08254 100-272 limits assumed, species assumed): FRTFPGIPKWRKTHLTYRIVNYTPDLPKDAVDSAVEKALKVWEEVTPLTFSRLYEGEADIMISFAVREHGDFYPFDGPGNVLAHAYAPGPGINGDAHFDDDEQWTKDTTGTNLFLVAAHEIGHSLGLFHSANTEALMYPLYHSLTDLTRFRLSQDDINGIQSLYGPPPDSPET

Consider `COc1ccc(CNC(=O)c2ccc3ccn(Cc4ccc(S(C)(=O)=O)cc4)c(=O)c3c2)cc1` [Example 52, 2-(4-methane-sulfonylbenzyl)-1-oxo-1,2-dihydro-isoquinoline-7-carboxylic Acid 4-methoxy-benzylamide], for which the IC50 (in general, the concentration that gives 50% inhibition) in test [1] is 0.85 µM; in test [2] it was > 30 µM; in test [3] it was > 30 µM; in test [4], > 30 µM; in test [5] it was > 30 µM.

With `O=C(NN1CCCCC1)c1ccc(Cn2ccc3ccc(C#CCc4ccccc4)cc3c2=O)cc1` [Example 20, 4-[1-oxo-7-(3-phenylprop-1-ynyl)-1H-isoquinolin-2-ylmethyl]-N-piperidin-1-yl-benzamide], the IC50 in test [1] is 0.039 µM; in test [2], 8 µM; in test [3] it was > 30 µM; in test [4], > 30 µM; in test [5], 2.3 µM.

As for `COc1cccc(CNC(=O)c2ccc3ccn(Cc4ccc(S(C)(=O)=O)cc4)c(=O)c3c2)c1` [Example 53, 2-(4-methane-sulfonylbenzyl)-1-oxo-1,2-dihydro-isoquinoline-7-carboxylic Acid 3-methoxy-benzylamide], the IC50 is 0.21 µM in test [1]; > 30 µM in test [2]; 61 µM in test [3]; > 100 µM in test [4]; > 100 µM in test [5].

Take `O=C(NCc1ccncc1)c1ccc2ccn(Cc3ccc(-c4nn[nH]n4)cc3)c(=O)c2c1` [Example 57, 1-oxo-2-[4-(2H-tetrazol-5-yl)benzyl]-1,2-dihydroisoquinoline-7-carboxylic Acid (pyridin-4-ylmethyl)amide]: the IC50 is 0.04 µM in test [1]; > 100 µM in test [2]; > 30 µM in test [3]; > 100 µM in test [4]; > 100 µM in test [5].

For the molecule `Cc1ccc(CNC(=O)c2ccc3ccn(Cc4ccc(-c5nn[nH]n5)cc4)c(=O)c3c2)cc1` [Example 60, 1-oxo-2-[4-(2H-tetrazol-5-yl)benzyl]-1,2-dihydroisoquinoline-7-carboxylic Acid 4-methyl-benzylamide], the IC50 in test [1] was 0.22 µM; in test [2], 31 µM; in test [3] it was 22 µM; in test [4], > 100 µM; in test [5], > 100 µM.

For `COc1cccc(CNC(=O)c2ccc3ccn(Cc4ccc(F)c(F)c4)c(=O)c3c2)c1` [Example 24], the IC50 in test [1] was 0.093 µM; in test [2] it was > 30 µM; in test [3], 14 µM; in test [4], 0.093 µM; in test [5], > 30 µM.

`COc1cc(CNC(=O)c2ccc3ccn(Cc4ccc(-c5nn[nH]n5)cc4)c(=O)c3c2)ccc1O` [Example 65, 1-oxo-2-[4-(2H-tetrazol-5-yl)benzyl]-1,2-dihydroisoquinoline-7-carboxylic Acid 4-hydroxy-3-methoxy-benzylamide]: the IC50 is 0.091 µM in test [1]; > 100 µM in test [2]; > 10 µM in test [3]; > 100 µM in test [4]; > 30 µM in test [5].

On to `CSc1ccc(CNC(=O)c2ccc3ccn(Cc4ccc(-c5nn[nH]n5)cc4)c(=O)c3c2)cc1` [Example 61, 1-oxo-2-[4-(2H-tetrazol-5-yl)benzyl]-1,2-dihydroisoquinoline-7-carboxylic Acid 4-methyl-sulfanylbenzylamide], for which the half-inhibitory concentration (IC50) was 0.032 µM in test [1]; 12 µM in test [2]; 5 µM in test [3]; > 10 µM in test [4]; > 10 µM in test [5].

`N#Cc1ccc(Cn2ccc3ccc(C#CCc4ccccc4)cc3c2=O)cc1` [Example 19]: the IC50 in test [1] is 0.049 µM; in test [2] it was 5 µM; in test [3] it was > 100 µM; in test [4], 28 µM; in test [5] it was > 100 µM.
